PubChem BioAssay AID2060496 (Molecular Pharmacology Branch, DTP, NCI, 2025)

Tested on: 276233-004-R-J1-PDC complex spheroid viability
Experiment: Anticancer human tumor 276233-004-R-J1-PDC patient-derived colon adenocarcinoma cell line growth inhibition [GQUAD]
Conditions: for IC50: curve of first compound; for viability, T/C: stronger effect = lower value
Source text: DNA G-quadruplex Stabilizer Agents in Combinations in Complex Spheroids
A high-throughput screen of multi-cell type tumor spheroids was designed to identify active combinations of DNA G-quadruplex stabilizer agents and targeted small molecules. Complex spheroids include a stromal component modeled by human endothelial cells (HUVEC) and fibroblasts modeled by human mesenchymal stem cells (MSCs). The concentration ranges selected for each drug and investigational agent were based upon clinically achievable concentrations if the clinical Cmax of the agent was known.
Compounds. The drugs and investigational agents: pidnarulex (CX-5461; NSC782164), APTO-253 (NSC789042), BRACO-19 (NSC847499), peposertib (NSC802822), ceralasertib (NSC780249), elimusertib (NSC800525), camonsertib (NSC841442), AZD-1390 (NSC803789), olaparib (NSC753686), talazoparib (NSC767125), ART-558 (NSC835418), sotorasib (NSC818433), MRTX-1133 (NSC836407), SN-38 (NSC673596), topotecan (NSC609699), etoposide (NSC141540), doxorubicin (NSC123127), gemcitabine (NSC613327), 5-fluorouracil (NSC19893), paclitaxel (NSC125973), vemurafenib (NSC761431), panobinostat (NSC761190), R-306465 (JNJ-16241199; NSC773264), adavosertib (NSC754352), TP-3654 (NSC805149), carboplatin (NSC241240), KSQ-4279 (NSC840948), and staurosporine (NSC755774) were obtained from the National Cancer Institute (NCI) Developmental Therapeutics Program Chemical Repository (34). The FDA-approved anticancer drug set is available from the NCI Developmental Therapeutics Program. […] The stock solutions were prepared in dimethyl sulfoxide (DMSO, Sigma-Aldrich, St. Louis, MO, cat. D2650) at 800-fold the tested concentration and stored at -70 degrees C prior to their use. All drugs and investigational agents were tested over a range starting from a high concentration at or near the clinical Cmax and decreasing in half-log increments. If the clinical Cmax for an agent had not been determined, the highest concentration tested was 10 microM.
2.3 Cell Culture. All cells were maintained in an incubator at 37 degrees C and 5% CO2 with 95% humidity. The PDC lines were cultured according to standard operating procedures established by the NCI PDMR. All PDCs were thawed and cultured in Matrigel-coated flasks prepared with a working solution of 1X Ham's F-12 nutrient mix, without supplementation (Invitrogen, cat. 11765054), 100 U/mL penicillin-streptomycin (Invitrogen, cat. 15140122), and 2.5% Matrigel (Corning Inc., cat. 354248) for the first three passages. The 857933-349-R-J2-PDC line was cultured in 6C/Colon 1B media, which includes advanced DMEM/F-12 (Thermo Fisher Scientific, cat. 12634028), 10 mM HEPES (Thermo Fisher Scientific, cat. 15630080), 1X GlutaMAX supplement (Thermo Fisher Scientific, cat. 35050061), 0.1 mg/mL primocin (InvivoGen, cat. ant-pm-2), 10% defined fetal bovine serum, heat inactivated (HyClone Laboratories Inc., cat. SH30070.03HI), 50% L-WRN conditioned media (ATCC, cat. CRL-3276), 1.25 mM N-Acetyl-L-cysteine (Sigma-Aldrich, cat. A9165), 10 mM nicotinamide (Sigma-Aldrich, cat. N0636), 1X B-27 supplement (Thermo Fisher Scientific, cat. 17504044), 1X N-2 supplement (Thermo Fisher Scientific, cat. 17502048), 10 microM Y-27632 dihydrochloride (Tocris Bioscience, cat. 1254), and 50 ng/mL human EGF recombinant protein (Thermo Fisher Scientific, cat. PHG0311). The 485176-168-R4-J1-PDC line was cultured in Panc media, which includes all 6C/Colon 1B media components plus 100 ng/mL human FGF-10 (Thermo Fisher Scientific, cat. 100-26), 500 nM SB-431542 (Selleckchem, cat. S1067), and gastrin (Tocris, cat. 3006).
[…]

[1] = second compound 0.0316 µM, first compound 0.0316 µM
[2] = second compound 0.0316 µM, first compound 0.1 µM
[3] = second compound 0.0316 µM, first compound 0.316 µM
[4] = second compound 0.0316 µM, first compound 1 µM
[5] = second compound 0.0316 µM, first compound 3.16 µM
[6] = second compound 0.0316 µM, first compound 10 µM
[7] = second compound 0.1 µM, first compound 0.0316 µM
[8] = second compound 0.1 µM, first compound 0.1 µM
[9] = second compound 0.1 µM, first compound 0.316 µM
[10] = second compound 0.1 µM, first compound 1 µM
[11] = second compound 0.1 µM, first compound 3.16 µM
[12] = second compound 0.1 µM, first compound 10 µM
[13] = second compound 0.316 µM, first compound 0.0316 µM
[14] = second compound 0.316 µM, first compound 0.1 µM
[15] = second compound 0.316 µM, first compound 0.316 µM
[16] = second compound 0.316 µM, first compound 1 µM
[17] = second compound 0.316 µM, first compound 3.16 µM
[18] = second compound 0.316 µM, first compound 10 µM
[19] = second compound 1 µM, first compound 0.0316 µM
[20] = second compound 1 µM, first compound 0.1 µM
[21] = second compound 1 µM, first compound 0.316 µM
[22] = second compound 1 µM, first compound 1 µM
[23] = second compound 1 µM, first compound 3.16 µM
[24] = second compound 1 µM, first compound 10 µM
[25] = second compound 3.16 µM, first compound 0.0316 µM
[26] = second compound 3.16 µM, first compound 0.1 µM
[27] = second compound 3.16 µM, first compound 0.316 µM
[28] = second compound 3.16 µM, first compound 1 µM
[29] = second compound 3.16 µM, first compound 3.16 µM
[30] = second compound 3.16 µM, first compound 10 µM
[31] = second compound 10 µM, first compound 0.0316 µM
[32] = second compound 10 µM, first compound 0.1 µM
[33] = second compound 10 µM, first compound 0.316 µM
[34] = second compound 10 µM, first compound 1 µM
[35] = second compound 10 µM, first compound 3.16 µM
[36] = second compound 10 µM, first compound 10 µM
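Also: spheroids exposed to drugs for seven days.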
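For viability, T/C in this document: 100% = DMSO vehicle control viability.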

With C=CC(=O)N1CCN(c2nc(=O)n(-c3c(C)ccnc3C(C)C)c3nc(-c4c(O)cccc4F)c(F)cc23)C(C)C1 (centres undefined) + Cc1[nH]c2ccc(F)cc2c1-c1nc2c3cccnc3c3ncccc3c2[nH]1 the IC50 (second compound 0.0316 µM) was > 10 µM, the IC50 (second compound 0.1 µM) was > 10 µM and the IC50 (second compound 0.316 µM) was > 10 µM. For the same compound, the IC50 (second compound 1 µM) was > 10 µM, the IC50 (second compound 3.16 µM) was > 10 µM and the IC50 (second compound 10 µM) was < 0.0316 µM. For the same compound, the viability, T/C [1] was 106%, the viability, T/C [2] was 95.5% and the viability, T/C [3] was 85.4%. The viability, T/C [4] was 90%, the viability, T/C [5] was 95.2% and the viability, T/C [6] was 88.5%. For the same compound, the viability, T/C [7] was 102%, the viability, T/C [8] was 91.9% and the viability, T/C [9] was 103%. It also gave a viability, T/C [10] of 108%, a viability, T/C [11] of 81.4% and a viability, T/C [12] of 93%. The viability, T/C [13] was 75.5%, the viability, T/C [14] was 94.9% and the viability, T/C [15] was 74.5%. It also gave a viability, T/C [16] of 83.4%, a viability, T/C [17] of 87.4% and a viability, T/C [18] of 84.4%. The viability, T/C [19] was 81.4%, the viability, T/C [20] was 90.4% and the viability, T/C [21] was 78.4%. It also gave a viability, T/C [22] of 73.4%, a viability, T/C [23] of 84.9% and a viability, T/C [24] of 80.9%. For the same compound, the viability, T/C [25] was 70.7%, the viability, T/C [26] was 50.6% and the viability, T/C [27] was 49.4%. The viability, T/C [28] was 52.3%, the viability, T/C [29] was 68.6% and the viability, T/C [30] was 52.2%. For the same compound, the viability, T/C [31] was 39%, the viability, T/C [32] was 38.7% and the viability, T/C [33] was 61%. For the same compound, the viability, T/C [34] was 53.1%, the viability, T/C [35] was 56% and the viability, T/C [36] was 51%.
In the case of COc1ncnc(C2CC2)c1-c1ncc2cnn(Cc3ccc(-c4nc(C(F)(F)F)cn4C(C)C)cc3)c2n1 + CN(C)c1ccc(Nc2c3ccc(NC(=O)CCN4CCCC4)cc3nc3cc(NC(=O)CCN4CCCC4)ccc23)cc1, the IC50 (second compound 0.0316 µM) is reported as > 10 µM, the IC50 (second compound 0.1 µM) is reported as > 10 µM and the IC50 (second compound 0.316 µM) is reported as > 10 µM. For the same compound, the IC50 (second compound 1 µM) was 0.0316 µM, the IC50 (second compound 3.16 µM) was < 0.0316 µM and the IC50 (second compound 10 µM) was < 0.0316 µM. For the same compound, the viability, T/C [1] was 87.4%, the viability, T/C [2] was 84.2% and the viability, T/C [3] was 74.3%. For the same compound, the viability, T/C [4] was 75.6%, the viability, T/C [5] was 68.8% and the viability, T/C [6] was 100%. The viability, T/C [7] was 70.4%, the viability, T/C [8] was 90.2% and the viability, T/C [9] was 77.5%. It also gave a viability, T/C [10] of 75.8%, a viability, T/C [11] of 58.6% and a viability, T/C [12] of 65.8%. The viability, T/C [13] was 69.4%, the viability, T/C [14] was 72.7% and the viability, T/C [15] was 59.9%. It also gave a viability, T/C [16] of 44%, a viability, T/C [17] of 69.4% and a viability, T/C [18] of 72.5%. The viability, T/C [19] was 57.3%, the viability, T/C [20] was 49.6% and the viability, T/C [21] was 51.4%. The viability, T/C [22] was 47%, the viability, T/C [23] was 65.3% and the viability, T/C [24] was 68.5%. It also gave a viability, T/C [25] of 53.2%, a viability, T/C [26] of 35.7% and a viability, T/C [27] of 53.1%. The viability, T/C [28] was 49.5%, the viability, T/C [29] was 56.7% and the viability, T/C [30] was 57.6%. It also gave a viability, T/C [31] of 35.6%, a viability, T/C [32] of 41.8% and a viability, T/C [33] of 36.7%. The viability, T/C [34] was 38.4%, the viability, T/C [35] was 58.4% and the viability, T/C [36] was 53.5%.
